{"source": "patent US20020165236A1", "about": "“Compounds for the treatment of protozoal diseases” (priority 2001, published 2002)", "key": {"[1]": {"test_system": "multiresistant Dd2 strain of Plasmodium falciparum", "test": "antiplasmodial action, [8-3H]hypoxanthine incorporation, Dd2 strain", "type": "cell-based", "details": "read-out: in vitro antiplasmodial activity (IC50 value class)", "experimental": "For the determination of the antiplasmodial action of the compounds, the multiresistant Dd2 strain of Plasmodium falciparum was used. The incorporation of [8-^3H]hypoxanthine into the parasitic nucleic acids was measured. The plasmodia were incubated at 0.3% parasitaemia and an erythrocyte haematocrit of 2.5% in the presence of different concentrations of the compounds in a final volume of 200-μl. The medium employed was RPMI 1640 which contained 10% of heat-treated human serum and 3 mg/l of gentamycin. in the incubations, the concentrations of the compounds varied from 0.3 to 100 μM. After 48 h, each batch was treated with 50 µl of […] (1 mCi/ml) and incubated for a further 18 h. The cells were filtered off, washed and suspended in 20 μl of scintillation fluid. The radioactive hypoxanthine absorbed by the parasites was then quantified using a scintillation counter.\nThe results were presented graphically and the IC50 value was determined using a fitting function. The value IC50, the ‘inhibition constant’, indicates the value in μMol/1 at which 50% inhibition occurs."}, "[2]": {"test_system": "3D7 chloroquine sensitive strain of Plasmodium falciparum", "test": "antiplasmodial activity against 3D7 strain", "type": "cell-based", "details": "read-out: in vitro antiplasmodial activity (IC50 value class)", "experimental": "Antiplasmodial activity against the 3D7 chloroquine sensitive strain of Plasmodium falciparumwas determined as described elsewhere (J. Med. Chem. (2001) 44(19), 3187-3194)."}}, "data": [{"compound": "N=C(N)c1cccc(NC(=O)Nc2cccc([N+](=O)[O-])c2)c1", "note": "[Compound 5]", "values": [{"measurement": "IC50", "setting": "[1]", "result": "10000 to 100000", "unit": "nM"}, {"measurement": "IC50", "setting": "[2]", "result": "1 to 10", "unit": "µM"}]}, {"compound": "N=C(N)c1cccc(NC(=O)Nc2cccc(C(F)(F)F)c2)c1", "note": "[Compound 10]", "values": [{"measurement": "IC50", "setting": "[1]", "result": "1000 to 10000", "unit": "nM"}, {"measurement": "IC50", "setting": "[2]", "result": "1 to 10", "unit": "µM"}]}, {"compound": "N=C(N)c1cccc(NC(=O)Nc2cc(C(F)(F)F)cc(C(F)(F)F)c2)c1", "note": "[Compound 13]", "values": [{"measurement": "IC50", "setting": "[1]", "result": "1000 to 10000", "unit": "nM"}, {"measurement": "IC50", "setting": "[2]", "result": "1 to 10", "unit": "µM"}]}, {"compound": "N=C(N)c1ccc(NC(=O)Nc2cc(C(F)(F)F)cc(C(F)(F)F)c2)cc1", "note": "[Compound 15]", "values": [{"measurement": "IC50", "setting": "[1]", "result": "1000 to 10000", "unit": "nM"}, {"measurement": "IC50", "setting": "[2]", "result": "1 to 10", "unit": "µM"}]}, {"compound": "N=C(N)c1cccc(NC(=O)Nc2ccc3c(c2)S(=O)(=O)C=C3)c1", "note": "[Compound 18]", "values": [{"measurement": "IC50", "setting": "[1]", "result": "< 1000", "unit": "nM"}, {"measurement": "IC50", "setting": "[2]", "result": "< 1", "unit": "µM"}]}, {"compound": "N=C(N)c1cccc(NC(=O)Nc2cccc(S(N)(=O)=O)c2)c1", "note": "[Compound 24]", "values": [{"measurement": "IC50", "setting": "[1]", "result": "10000 to 100000", "unit": "nM"}, {"measurement": "IC50", "setting": "[2]", "result": "10 to 100", "unit": "µM"}]}, {"compound": "N=C(N)c1cccc(NC(=O)Nc2ccc(S(=O)(=O)NCc3ccc(OC(F)(F)F)cc3)cc2)c1", "note": "[Compound 34]", "values": [{"measurement": "IC50", "setting": "[1]", "result": "< 1000", "unit": "nM"}, {"measurement": "IC50", "setting": "[2]", "result": "1 to 10", "unit": "µM"}]}, {"compound": "N=C(N)c1cccc(NC(=O)Nc2ccc(S(=O)(=O)c3ccccc3)cc2)c1", "note": "[Compound 61]", "values": [{"measurement": "IC50", "setting": "[1]", "result": "1000 to 10000", "unit": "nM"}, {"measurement": "IC50", "setting": "[2]", "result": "1 to 10", "unit": "µM"}]}, {"compound": "N=C(N)c1cccc(NC(=O)Nc2cccc(S(=O)(=O)c3ccccc3)c2)c1", "note": "[Compound 62]", "values": [{"measurement": "IC50", "setting": "[1]", "result": "1000 to 10000", "unit": "nM"}, {"measurement": "IC50", "setting": "[2]", "result": "1 to 10", "unit": "µM"}]}, {"compound": "N=C(N)c1ccc(NC(=O)Nc2ccc(S(=O)(=O)c3ccccc3)cc2)cc1", "note": "[Compound 64]", "values": [{"measurement": "IC50", "setting": "[1]", "result": "< 1000", "unit": "nM"}, {"measurement": "IC50", "setting": "[2]", "result": "1 to 10", "unit": "µM"}]}, {"compound": "Cc1ccc(C(=O)Nc2ccc(NC(=O)Nc3cccc(C(=N)N)c3)cc2O)cc1", "note": "[Compound 67]", "values": [{"measurement": "IC50", "setting": "[1]", "result": "1000 to 10000", "unit": "nM"}, {"measurement": "IC50", "setting": "[2]", "result": "1 to 10", "unit": "µM"}]}, {"compound": "COc1ccccc1C(=O)Nc1cccc(NC(=O)Nc2cccc(C(=N)N)c2)c1", "note": "[Compound 68]", "values": [{"measurement": "IC50", "setting": "[1]", "result": "1000 to 10000", "unit": "nM"}]}, {"compound": "COc1ccc(C(=O)Nc2cccc(NC(=O)Nc3cccc(C(=N)N)c3)c2)cc1", "note": "[Compound 69]", "values": [{"measurement": "IC50", "setting": "[1]", "result": "< 1000", "unit": "nM"}]}, {"compound": "N=C(N)c1cccc(NC(=O)Nc2cccc(NC(=O)c3ccc(-c4ccccc4)cc3)c2)c1", "note": "[Compound 70]", "values": [{"measurement": "IC50", "setting": "[1]", "result": "1000 to 10000", "unit": "nM"}]}, {"compound": "Cc1cc(-c2onc(C)c2C(=O)Nc2ccc(NC(=O)Nc3cccc(C(=N)N)c3)cc2)no1", "note": "[Compound 71]", "values": [{"measurement": "IC50", "setting": "[1]", "result": "1000 to 10000", "unit": "nM"}]}, {"compound": "N=C(N)c1cccc(NC(=O)Nc2cccc(C(=O)NC(c3ccccc3)c3ccccc3)c2)c1", "note": "[Compound 72]", "values": [{"measurement": "IC50", "setting": "[1]", "result": "1000 to 10000", "unit": "nM"}]}, {"compound": "N=C(N)c1cccc(NC(=O)Nc2ccc(C(=O)NCc3ccc(S(N)(=O)=O)cc3)cc2)c1", "note": "[Compound 73, 4-[3-(3-carbamimidoylphenyl)-ureido]-N-(4-sulfamoylbenzyl)-benzamide]", "values": [{"measurement": "IC50", "setting": "[1]", "result": "1000 to 10000", "unit": "nM"}]}, {"compound": "N=C(N)c1cccc(NC(=S)Nc2ccc(S(=O)(=O)NCc3ccc(C(F)(F)F)cc3)cc2)c1", "note": "[Compound 74]", "values": [{"measurement": "IC50", "setting": "[1]", "result": "< 1000", "unit": "nM"}]}, {"compound": "N=C(N)c1cccc(NC(=S)Nc2ccc(S(=O)(=O)NCc3cccc(F)c3)cc2)c1", "note": "[Compound 75]", "values": [{"measurement": "IC50", "setting": "[1]", "result": "< 1000", "unit": "nM"}]}, {"compound": "N=C(N)c1cccc(NC(=S)Nc2ccc3c(c2)S(=O)(=O)C=C3)c1", "note": "[Compound 76]", "values": [{"measurement": "IC50", "setting": "[1]", "result": "< 1000", "unit": "nM"}]}, {"compound": "N=C(N)c1cccc(NC(=S)Nc2ccc(S(=O)(=O)c3ccc(NCCO)cc3)cc2)c1", "note": "[Compound 77]", "values": [{"measurement": "IC50", "setting": "[1]", "result": "1000 to 10000", "unit": "nM"}]}, {"compound": "N=C(N)c1cccc(NC(=S)Nc2ccc(S(=O)(=O)NCc3cccc(C(F)(F)F)c3)cc2)c1", "note": "[Compound 78]", "values": [{"measurement": "IC50", "setting": "[1]", "result": "< 1000", "unit": "nM"}]}, {"compound": "COC(=O)c1cc(NC(=S)Nc2cccc(C(=N)N)c2)cc(C(F)(F)F)c1", "note": "[Compound 79]", "values": [{"measurement": "IC50", "setting": "[1]", "result": "< 1000", "unit": "nM"}]}, {"compound": "CCN(CC)C(=O)c1cccc(NC(=S)Nc2cccc(C(=N)N)c2)c1", "note": "[Compound 80]", "values": [{"measurement": "IC50", "setting": "[1]", "result": "< 1000", "unit": "nM"}]}, {"compound": "CN(C)CCNC(=N)c1cccc(NC(=O)Nc2ccc(S(=O)(=O)c3ccc([N+](=O)[O-])cc3)cc2)c1", "note": "[Compound 81]", "values": [{"measurement": "IC50", "setting": "[1]", "result": "1000 to 10000", "unit": "nM"}]}, {"compound": "N=C(Nc1cccnc1)c1cccc(NC(=O)Nc2ccc(S(=O)(=O)c3ccc([N+](=O)[O-])cc3)cc2)c1", "note": "[Compound 82]", "values": [{"measurement": "IC50", "setting": "[1]", "result": "< 1000", "unit": "nM"}]}, {"compound": "N=C(NCCN1CCCC1)c1cccc(NC(=O)Nc2ccc(S(=O)(=O)c3ccc([N+](=O)[O-])cc3)cc2)c1", "note": "[Compound 83]", "values": [{"measurement": "IC50", "setting": "[1]", "result": "1000 to 10000", "unit": "nM"}]}, {"compound": "N=C(NCC1CCCO1)c1cccc(NC(=O)Nc2ccc(S(=O)(=O)c3ccc([N+](=O)[O-])cc3)cc2)c1", "note": "(stereo not drawn) [Compound 84]", "values": [{"measurement": "IC50", "setting": "[1]", "result": "1000 to 10000", "unit": "nM"}]}, {"compound": "N=C(NO)c1cccc(NC(=O)Nc2ccc(S(=O)(=O)c3ccc([N+](=O)[O-])cc3)cc2)c1", "note": "[Compound 85]", "values": [{"measurement": "IC50", "setting": "[1]", "result": "< 1000", "unit": "nM"}]}, {"compound": "COC(=O)c1cc(NC(=O)Nc2cccc(C(=N)Nc3cccnc3)c2)cc(C(F)(F)F)c1", "note": "[Compound 86]", "values": [{"measurement": "IC50", "setting": "[1]", "result": "1000 to 10000", "unit": "nM"}]}, {"compound": "COC(=O)c1cc(NC(=O)Nc2cccc(C(=N)NCCN(C)C)c2)cc(C(F)(F)F)c1", "note": "[Compound 87]", "values": [{"measurement": "IC50", "setting": "[1]", "result": "1000 to 10000", "unit": "nM"}]}, {"compound": "COC(=O)c1cc(NC(=O)Nc2cccc(C(=N)NCCN3CCCC3)c2)cc(C(F)(F)F)c1", "note": "[Compound 88]", "values": [{"measurement": "IC50", "setting": "[1]", "result": "1000 to 10000", "unit": "nM"}]}, {"compound": "N=C(Nc1cccnc1)c1cccc(NC(=O)Nc2ccc(S(=O)(=O)NCc3ccc(S(N)(=O)=O)cc3)cc2)c1", "note": "[Compound 89]", "values": [{"measurement": "IC50", "setting": "[1]", "result": "1000 to 10000", "unit": "nM"}]}, {"compound": "N=C(NCCN1CCOCC1)c1cccc(NC(=O)Nc2ccc(S(=O)(=O)NCc3ccc(S(N)(=O)=O)cc3)cc2)c1", "note": "[Compound 90]", "values": [{"measurement": "IC50", "setting": "[1]", "result": "< 1000", "unit": "nM"}]}, {"compound": "O=C(Nc1cccc(C2=NCCN2)c1)Nc1cccc(C(F)(F)F)c1", "note": "[Compound 91]", "values": [{"measurement": "IC50", "setting": "[1]", "result": "< 1000", "unit": "nM"}]}, {"compound": "N=C(NCCN1CCOCC1)c1cccc(NC(=O)Nc2cccc(C(F)(F)F)c2)c1", "note": "[Compound 93]", "values": [{"measurement": "IC50", "setting": "[1]", "result": "1000 to 10000", "unit": "nM"}]}, {"compound": "N=C(NO)c1cccc(NC(=O)Nc2ccc(S(=O)(=O)NCc3ccc(S(N)(=O)=O)cc3)cc2)c1", "note": "[Compound 96]", "values": [{"measurement": "IC50", "setting": "[1]", "result": "1000 to 10000", "unit": "nM"}]}, {"compound": "N=C(Nc1ccc(-c2ccccc2)cc1)c1cccc(NC(=O)Nc2cccc(C(F)(F)F)c2)c1", "note": "[Compound 100]", "values": [{"measurement": "IC50", "setting": "[1]", "result": "1000 to 10000", "unit": "nM"}]}, {"compound": "N=C(N)c1cccc(NC(=O)C(=O)Nc2ccc(S(=O)(=O)NCc3ccccc3)cc2)c1", "note": "[Compound 101, N-(4-benzylsulfamoylphenyl)-N′-(3-carbamimidoyl-phenyl)-oxalamide]", "values": [{"measurement": "IC50", "setting": "[1]", "result": "1000 to 10000", "unit": "nM"}]}, {"compound": "N=C(N)c1cccc(NC(=O)C(=O)Nc2cccc(S(=O)(=O)NCc3ccccc3)c2)c1", "note": "[Compound 102, N-(3-benzylsulfamoylphenyl)-N′-(3-carbamimidoyl-phenyl)-oxalamide]", "values": [{"measurement": "IC50", "setting": "[1]", "result": "10000 to 100000", "unit": "nM"}]}]}
